Consider 29 molecules from patent US20100048950A1 (BOEHRINGER INGELHEIM INTERNATIONAL GMBH, priority 2007, published 2010).

The target of this test is T1, human glucocorticoid receptor (GR) complex (Homo sapiens, UniProt P04150).
T1 construct: made in house; host or cells: insect expression system (baculovirus lysate)
T1 sequence (P04150 1-777): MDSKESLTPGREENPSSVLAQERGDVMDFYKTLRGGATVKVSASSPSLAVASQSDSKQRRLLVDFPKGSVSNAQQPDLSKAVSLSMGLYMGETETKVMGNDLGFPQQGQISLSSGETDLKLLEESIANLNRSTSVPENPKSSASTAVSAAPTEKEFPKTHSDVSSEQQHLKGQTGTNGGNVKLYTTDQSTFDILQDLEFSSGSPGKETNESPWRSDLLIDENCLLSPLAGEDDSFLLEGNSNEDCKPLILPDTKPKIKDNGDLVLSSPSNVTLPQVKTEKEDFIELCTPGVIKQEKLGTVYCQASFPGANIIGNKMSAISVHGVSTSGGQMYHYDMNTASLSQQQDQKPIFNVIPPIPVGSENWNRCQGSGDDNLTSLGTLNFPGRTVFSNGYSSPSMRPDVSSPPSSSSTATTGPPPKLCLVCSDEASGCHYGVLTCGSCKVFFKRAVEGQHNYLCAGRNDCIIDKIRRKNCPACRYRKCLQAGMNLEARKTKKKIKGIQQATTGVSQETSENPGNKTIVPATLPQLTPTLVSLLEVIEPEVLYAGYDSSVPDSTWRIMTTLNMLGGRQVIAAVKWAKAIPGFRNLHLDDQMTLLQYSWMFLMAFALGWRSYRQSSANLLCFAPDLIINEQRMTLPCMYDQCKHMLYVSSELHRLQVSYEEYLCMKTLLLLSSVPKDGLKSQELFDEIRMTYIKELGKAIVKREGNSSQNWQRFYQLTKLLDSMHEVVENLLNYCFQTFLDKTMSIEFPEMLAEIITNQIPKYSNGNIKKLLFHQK
Nature of the test: Glucocorticoid receptor competitive binding assay (fluorescence polarization). As to conditions: competition with TAMRA-labeled dexamethasone, read-out: potent activity (IC50) in the GR binding assay. The method, then:
Compounds of the invention were evaluated for binding to the steroid receptor by a fluorescence polarization competitive binding assay. Detailed descriptions for preparation of recombinant glucocorticoid receptor (GR) complex used in the assay is described in U.S. Patent Application Publication No. US 2003/0017503, filed May 20, 2002, and incorporated herein by reference in its entirety. Preparation of the tetramethylrhodamine (TAMRA)-labeled dexamethasone probe was accomplished using a standard literature procedure (M. Pons et al., J. Steroid Biochem., 1985, 22, pp. 267-273).
The affinity of the probe for the steroid receptor was then determined in a titration experiment. The fluorescence polarization value of the probe in assay buffer was measured on an SLM-8100 fluorometer using the excitation and emission maximum values described above. Aliquots of expression vector lysate were added and fluorescence polarization was measured after each addition until no further change in polarization value was observed. Non-linear least squares regression analysis was used to calculate the dissociation constant of the probe from the polarization values obtained for lysate binding to the probe.
This assay uses fluorescence polarization (FP) to quantitate the ability of test compounds to compete with tetramethylrhodamine (TAMRA)-labeled dexamethasone for binding to a human glucocorticoid receptor (GR) complex prepared from an insect expression system. The assay buffer was: 10 mM TES, 50 mM KCl, 20 mM Na2MoO4.2H2O, 1.5 mM EDTA, 0.04% w/v CHAPS, 10% v/v glycerol, 1 mM dithiothreitol, pH 7.4. Test compounds were dissolved to 1 mM in neat DMSO and then further diluted to 10× assay concentration in assay buffer supplemented with 10% v/v DMSO. Test compounds were serially diluted at 10× assay concentrations in 10% DMSO-containing buffer in 96-well polypropylene plates. Binding reaction mixtures were prepared in 96-well black Dynex microtiter plates by sequential addition of the following assay components to each well: 15 μL of 10× test compound solution, 85 μL of GR-containing baculovirus lysate diluted 1:170 in assay buffer, and 50 μL of 15 nM TAMRA-labeled dexamethasone. Positive controls were reaction mixtures containing no test compound; negative controls (blanks) were reaction mixtures containing 0.7 μM to 2 μM dexamethasone. The binding reactions were incubated for 1 hour at room temperature and then read for fluorescence polarization in the LJL Analyst set to 550 nm excitation and 580 nm emission, with the Rhodamine 561 dichroic mirror installed. IC50 values were determined by iterative non-linear curve fitting of the FP signal data to a 4-parameter logistic equation.
`Cc1cc(C)c(S(=O)(=O)NC(CNc2ccc(Cl)cc2C#N)C(F)(F)F)c(C)c1` (centres unmarked) [N-{1-[(4-Chloro-2-cyanophenylamino)methyl]-2,2,2-trifluoroethyl}-2,4,6-trimethylbenzenesulfonamide]: the IC50 is not above 100 nM.
Under `Cc1cc(C)c(S(=O)(=O)NC(CNc2cc(Cl)ccc2C)C(F)(F)F)c(C)c1` (centres unmarked) [N-{1-[(5-Chloro-2-methylphenylamino)methyl]-2,2,2-trifluoroethyl}-2,4,6-trimethylbenzenesulfonamide] stands not above 100 nM.
With `Cc1cc(C)c(S(=O)(=O)NC(CSc2ccc(F)c(Cl)c2)C(F)(F)F)c(C)c1` (centres unmarked) [N-[1-(3-Chloro-4-fluorophenylsulfanylmethyl)-2,2,2-trifluoroethyl]-2,4,6-trimethylbenzenesulfonamide], the IC50 was not above 100 nM.
`Cc1cc(C)c(S(=O)(=O)NC(CSc2ccccc2OC(F)(F)F)C(F)(F)F)c(C)c1` (centres unmarked): the IC50 is not above 100 nM.
The figure for `Cc1cc(C)c(S(=O)(=O)NC(CNc2ccccc2OC(F)(F)F)C(F)(F)F)c(C)c1` (centres unmarked) [2,4,6-Trimethyl-N-{2,2,2-trifluoro-1-[(2-trifluoromethoxyphenylamino)methyl]ethyl}benzenesulfonamide] is not above 100 nM; for `Cc1cc(C)c(S(=O)(=O)NC(CNc2ccc(C#N)cc2)C(F)(F)F)c(C)c1` (centres unmarked) [N-{1-[(4-Cyanophenylamino)methyl]-2,2,2-trifluoroethyl}-2,4,6-trimethylbenzenesulfonamide] it is not above 100 nM; for `Cc1cc(C)c(S(=O)(=O)NC(CNc2cccc(Cl)c2)C(F)(F)F)c(C)c1` (centres unmarked) [N-{1-[(3-Chlorophenylamino)methyl]-2,2,2-trifluoroethyl}-2,4,6-trimethylbenzenesulfonamide] it is not above 100 nM.
The figure for `COC(=O)c1cccc(NCC(NS(=O)(=O)c2c(C)cc(C)cc2C)C(F)(F)F)c1` (centres unmarked) [3-[3,3,3-Trifluoro-2-(2,4,6-trimethylbenzenesulfonylamino)propylamino]benzoic acid methyl ester] is not above 100 nM; for `Cc1cc(C)c(S(=O)(=O)NC(COc2ccc(Br)cc2)C(F)(F)F)c(C)c1` (centres unmarked) [N-[1-(4-Bromophenoxymethyl)-2,2,2-trifluoroethyl]-2,4,6-trimethylbenzenesulfonamide] it is not above 100 nM.
The figure for `CCCN(CC(NS(=O)(=O)c1c(C)cc(C)cc1C)C(F)(F)F)c1ccccc1` (centres unmarked) is not above 100 nM.
Regarding `Cc1cc(C)c(S(=O)(=O)NC(CNc2cccc(C(F)(F)F)c2)C(F)(F)F)c(C)c1` (centres unmarked) [2,4,6-Trimethyl-N-{2,2,2-trifluoro-1-[(3-trifluoromethylphenylamino)methyl]ethyl}benzenesulfonamide], the half-maximal inhibitory concentration (IC50) was not above 100 nM.
Under `CCOC(=O)c1ccc(OCC(NS(=O)(=O)c2c(C)cc(C)cc2C)C(F)(F)F)c(OC)c1` (centres unmarked) [3-Methoxy-4-[3,3,3-trifluoro-2-(2,4,6-trimethylbenzenesulfonylamino)propoxy]benzoic acid ethyl ester] stands not above 100 nM; under `Cc1cc(C)c(S(=O)(=O)NC(CNc2cc(Cl)ccc2Cl)C(F)(F)F)c(C)c1` (centres unmarked) [N-{1-[(2,5-Dichlorophenylamino)methyl]-2,2,2-trifluoroethyl}-2,4,6-trimethylbenzenesulfonamide], not above 100 nM; under `Cc1cc(C)c(S(=O)(=O)NC(CSc2ccc(F)cc2)C(F)(F)F)c(C)c1` (centres unmarked) [2,4,6-Trimethyl-N-[2,2,2-trifluoro-1-(4-fluorophenylsulfanylmethyl)ethyl]benzenesulfonamide], not above 100 nM.
Under `Cc1cc(C)c(S(=O)(=O)NC(CNc2ccc(C)cc2F)C(F)(F)F)c(C)c1` (centres unmarked) [2,4,6-Trimethyl-N-{2,2,2-trifluoro-1-[(2-fluoro-4-methylphenylamino)methyl]ethyl}benzenesulfonamide] stands not above 100 nM.
Under `COC(=O)c1ccccc1SCC(NS(=O)(=O)c1c(C)cc(C)cc1C)C(F)(F)F` (centres unmarked) [2-[3,3,3-Trifluoro-2-(2,4,6-trimethylbenzenesulfonylamino)propylsulfanyl]benzoic acid methyl ester] stands not above 100 nM; under `Cc1cc(C)c(S(=O)(=O)NC(COc2ccc(C(F)(F)F)cc2)C(F)(F)F)c(C)c1` (centres unmarked) [2,4,6-Trimethyl-N-[2,2,2-trifluoro-1-(4-trifluoromethylphenoxymethyl)ethyl]benzenesulfonamide], not above 100 nM.
As to `Cc1cc(C)c(S(=O)(=O)NC(COc2cccc3c2CCC3=O)C(F)(F)F)c(C)c1` (centres unmarked) [2,4,6-Trimethyl-N-[2,2,2-trifluoro-1-(1-oxoindan-4-yloxymethyl)ethyl]benzenesulfonamide], the IC50 was not above 100 nM.
For `Cc1cc(C)c(S(=O)(=O)NC(COc2ccc(F)cc2C)C(F)(F)F)c(C)c1` (centres unmarked) [2,4,6-Trimethyl-N-[2,2,2-trifluoro-1-(4-fluoro-2-methylphenoxymethyl)ethyl]benzenesulfonamide], the IC50 was not above 100 nM.
`Cc1cc(C)c(S(=O)(=O)NC(CSc2cccc(Br)c2)C(F)(F)F)c(C)c1` (centres unmarked) [N-[1-(3-Bromophenylsulfanylmethyl)-2,2,2-trifluoroethyl]-2,4,6-trimethylbenzenesulfonamide]: the 50% inhibitory concentration (IC50) is not above 100 nM.
The figure for `Cc1cc(C)c(S(=O)(=O)NC(CN(CCC#N)c2ccccc2)C(F)(F)F)c(C)c1` (centres unmarked) [N-(1-{[(2-Cyanoethyl)phenylamino]methyl}-2,2,2-trifluoroethyl)-2,4,6-trimethylbenzenesulfonamide] is not above 100 nM; for `CCc1ccccc1SCC(NS(=O)(=O)c1c(C)cc(C)cc1C)C(F)(F)F` (centres unmarked) [N-[1-(2-Ethylphenylsulfanylmethyl)-2,2,2-trifluoroethyl]-2,4,6-trimethylbenzenesulfonamide] it is not above 100 nM.
The figure for `Cc1cc(C)c(S(=O)(=O)NC(CNc2cccc(C#N)c2)C(F)(F)F)c(C)c1` (centres unmarked) [N-{1-[(3-Cyanophenylamino)methyl]-2,2,2-trifluoroethyl}-2,4,6-trimethylbenzenesulfonamide] is not above 100 nM; for `Cc1cc(C)c(S(=O)(=O)NC(CNc2ccc(Cl)cc2)C(F)(F)F)c(C)c1` (centres unmarked) it is not above 100 nM.
The figure for `Cc1cc(C)c(S(=O)(=O)NC(CSc2ccc(Br)cc2OC(F)(F)F)C(F)(F)F)c(C)c1` (centres unmarked) [N-[1-(4-Bromo-2-trifluoromethoxyphenylsulfanylmethyl)-2,2,2-trifluoroethyl]-2,4,6-trimethylbenzenesulfonamide] is not above 100 nM; for `Cc1cc(C)c(S(=O)(=O)NC(COc2ccccc2C)C(F)(F)F)c(C)c1` (centres unmarked) [2,4,6-Trimethyl-N-(2,2,2-trifluoro-1-o-tolyloxymethylethyl)benzenesulfonamide] it is not above 100 nM.
On to `Cc1cc(C)c(S(=O)(=O)NC(COc2cc(C)c(C#N)c(C)c2)C(F)(F)F)c(C)c1` (centres unmarked) [N-[1-(4-Cyano-3,5-dimethylphenoxymethyl)-2,2,2-trifluoroethyl]-2,4,6-trimethylbenzenesulfonamide], for which the IC50 was not above 100 nM.
Under `Cc1cc(C)c(S(=O)(=O)NC(COc2cc(C)ccc2Cl)C(F)(F)F)c(C)c1` (centres unmarked) [N-[1-(2-Chloro-5-methylphenoxymethyl)-2,2,2-trifluoroethyl]-2,4,6-trimethylbenzenesulfonamide] stands not above 100 nM.
The figure for `Cc1cc(C)c(S(=O)(=O)NC(CNc2ccc(C#N)cc2Cl)C(F)(F)F)c(C)c1` (centres unmarked) [N-{1-[(2-Chloro-4-cyanophenylamino)methyl]-2,2,2-trifluoroethyl}-2,4,6-trimethylbenzenesulfonamide] is not above 100 nM.
